Experimental data: patent publication US6410588B1, “Use of cannabinoids as anti-inflammatory agents” (priority 1998, dated 2002)
Like-named read-outs stand apart in the source and are kept apart here.

Experiments:
IL-11 = assay: human rheumatoid synovial cell IL-11 production (ELISA); type: cell-based; conditions: for IL-11, mean: 48 hours culture
Protocol: (§1) Synovial membrane tissue was obtained from a patient fulfilling the revised American College of Rheumatology criteria for rheumatoid arthritis who underwent joint replacement surgery. Synovial cell cultures were prepared as described. Briefly, synovial membrane tissue was digested with collagenase type A (1 mg/ml) and DNAase I (0.15 mg/ml) in RPMI 1640 containing 5% FCS for 2 hours at 37° C.
(§2) Similarly, rheumatoid synovial cells spontaneously produce cytokines when cultured in vitro. […] With restricted number of human synovial cells in this sample, the optimal dose for inhibiting TNFα may have been missed.

IL-1 = conditions: cited from earlier work
[1] = test system: collagen induced arthritis (CIA)
Protocol: Bovine type II collagen (CII) was purified from hyaline cartilage, as described [Williams, 1992# 18]. Male DBA/1 mice (8-12 weeks old) were immunized with 100 μg of CII emulsified in complete Freund's adjuvant CFA (Difco, Detroit, Mich.) by intradermal injection at the base of the tail. From day 15 after immunization onwards, mice were examined daily for onset of CIA using two clinical parameters: paw swelling and clinical score [Williams, PNAS, Vol. 89, pages 97848]. Paw swelling was assessed by measuring the thickness of the affected hind paws with 0-10 mm callipers (Kroeplin, Schluchtern, Germany). For the clinical score, 0=normal; 1=slight swelling and erythema; 2=pronounced edema; 3=joint rigidity. Each limb was graded, resulting in a maximal clinical score of 12 per animal. The arthritis was monitored over 10 days, after which the mice were sacrificed.
Mice injected with vehicle alone (ethanolcremophor in saline) served as controls (n=23).

[2] = test system: animal models predictive of antipsychotic activity; conditions: in vivo; cited from earlier work
IL-1β release = IL-1β release by LPS-stimulated human PBMC; type: cell-based; conditions: for IL-1β: LPS 10 ng/ml 24 hours, mean ± SEM
Protocol: (§3) CBD was dissolved in ethanol/DMSO.
(§4) Peripheral blood mononuclear cells (PBMC) were isolated from the whole blood of healthy donors by Ficoll Hypaque gradient. […] After this 6 hour pretreatment period, the cells were stimulated with either LPS from Salmonella typhimirium, 10 ng/ml, for 24 hours (for TNF and IL-1β) or with PHA, 5 μg/ml, for 72 hours (for IFNγ) Viability of the PBMC was assessed with the MTT test.
(§5) Human PBMC were cultured and stimulated with or without CBD, as described in Materials and Methods. The stimulus for TNF and IL-1 production was LPS, the stimulus for IFNγ production was PHA. The results are the mean of triplicate wells±SEM. ND=not done.

IL-2 = conditions: cited from earlier work
IFNγ = conditions: cited from earlier work
IFNγ production = assay: IFNγ release by PHA-stimulated human PBMC; type: cell-based; conditions: PHA 5 μg/ml 72 hours, mean ± SEM
Protocol: as §3, §4, §5

EAE = assay: experimental autoimmune encephalomyelitis (EAE); type: in vivo, mouse (SJL/J)
TNF = assay: human rheumatoid synovial cell TNF production (ELISA); type: cell-based; conditions: for TNF, mean: 48 hours culture
Protocol: as §1, §2

[3] = test system: Thioglycollate induced macrophages (Mφ); assay: viability of macrophages cultured with CBD; type: cell-based, mouse; conditions: 8 μg/ml CBD; after 48 hr
TNFα release [4] = assay: TNFα release by LPS-stimulated human PBMC; type: cell-based; conditions: for TNF α: LPS 10 ng/ml 24 hours
Protocol: as §3, §4, §5

TNFα release [5] = assay: spontaneous TNF release by murine synovial cells from arthritic mice; type: cell-based, mouse (DBA/1); conditions: for O.D. (cytotoxicity assay for TNF) / TNF: supernatants after 24 h
Protocol: DBA/1 mice which had been immunized with bovine CII in CFA, to induce CIA, as discussed above, were sacrificed at day 10 of arthritis and the knee joints were removed. Synovial cell cultures were performed as previously described. Briefly, synovial membranes were excised under a dissecting microscope and digested with collagenase A (1 mg/ml) (Boehringer-Mannheim) and DNAase type IV (0.15 mg/ml) (Sigma, Dorset, UK) at 37° C. for 20 minutes, in. the presence of polymyxin B (33 μg/ml) (Sigma). […] Supernatants were collected after 24 h. and stored at −20° C. until measured for cytokines.
Well cytotoxicity assay was used.

IL-10 = assay: human rheumatoid synovial cell IL-10 production (ELISA); type: cell-based; conditions: for IL-10, mean: 48 hours culture
Protocol: as §1, §2

[6] = lower concentrations of CBD (0.1 to 5 μg/ml)

For `C=C(C)[C@@H]1CCC(C)=C[C@H]1c1c(O)cc(CCCCC)cc1O` [CBD, Cannabidiol], the “IL-11 release (in words)” value (IL-11) was “dose-dependent inhibition”, the “IL-11, mean” value (IL-11; CBD 0.1 μg/ml) was 2151 pg/mL and the “IL-11, mean” value (IL-11; CBD 1 μg/ml) was 2059 pg/mL. For the same molecule, the “IL-11, mean” value (IL-11; CBD 20 μg/ml) was 100 pg/mL, the IL-1 production (IL-1) was “decreased” and the “therapeutic effect on CIA (clinical score, paw thickness)” value ([1]; 2.5 mg/kg i.p. daily until day 10) was “no effect at all”. For the same molecule, the “therapeutic effect on CIA (clinical score, paw thickness)” value ([1]; 10 mg/kg i.p. daily until day 10) was “slight therapeutic effect”, the “efficacy in animal models predictive of antipsychotic activity” value [2] was “effective” and the IL-1β (IL-1β release; CBD 0.1 μg/ml) was 621 ± 82 pg/mL. For the same molecule, the IL-1β (IL-1β release; CBD 1 μg/ml) was 671 ± 74 pg/mL, the IL-1β (IL-1β release; CBD 2.5 μg/ml) was 630 ± 81 pg/mL and the IL-1β (IL-1β release; CBD 5 μg/ml) was 908 ± 99 pg/mL. The IL-1β (IL-1β release; CBD 10 μg/ml) was 1575 ± 335 pg/mL, the IL-1β (IL-1β release; CBD 20 μg/ml) was 2292 ± 251 pg/mL and the IL-1β (IL-1β release; CBD 30 μg/ml) was 4158 ± 313 pg/mL. For the same molecule, the “effect on LPS-induced IL-1β release (in words)” value (IL-1β release; higher concentrations of CBD) was “increased their release”, the “effect on LPS-induced IL-1β release (in words)” value (IL-1β release; [6]) was “significantly suppressed” and the IL-2 secretion (IL-2) was “did not affect IL-2 secretion”. The IFNγ synthesis (IFNγ; high concentrations (5-24 μg/ml)) was “completely blocked IFNγ synthesis”, the IFNγ production (IFNγ; low concentrations) was “increase IFNγ production” and the IFNγ (IFNγ production; CBD 0.1 μg/ml) was 2062 ± 316 pg/mL. For the same molecule, the IFNγ (IFNγ production; CBD 1 μg/ml) was 1082 ± 75 pg/mL, the IFNγ (IFNγ production; CBD 2.5 μg/ml) was 1171 ± 138 pg/mL and the IFNγ (IFNγ production; CBD 5 μg/ml) was 791 ± 43 pg/mL. For the same molecule, the IFNγ (IFNγ production; CBD 10 μg/ml) was 150 ± 43 pg/mL, the “suppression of EAE (in words)” value (EAE; 10 mg/kg) was “markedly suppresses EAE” and the “Duration of EAE” value (EAE; CBD 10 mg/kg i.p. once a day for 14 days) was 2.16 days. For the same molecule, the “Incidence of EAE” value (EAE; CBD 10 mg/kg i.p. once a day for 14 days, 6 SJL/J mice) was 2/6, the “Mean maximum score (EAE)” value (EAE; CBD 10 mg/kg i.p. once a day for 14 days, six point scale 0-6) was 1 and the “TNF, mean” value (TNF; CBD 0.1 μg/ml) was 1963 pg/mL. For the same molecule, the “TNF, mean” value (TNF; CBD 1 μg/ml) was 2089 pg/mL, the “TNF, mean” value (TNF; CBD 20 μg/ml) was 2271 pg/mL and the “TNFa release (in words)” value (TNF; first initial experiment) was “not suppressed”. The “viability of Mφ” value [3] was “**After 48 hr the Mφ cultured with 8 μg/ml CBD were only 70% viable”, the “TNF α” value (TNFα release [4]; CBD 0.1 μg/ml, mean of triplicate wells ± SEM) was 2959 ± 434 pg/mL and the “TNF α” value (TNFα release [4]; CBD 1 μg/ml, mean ± SEM) was 2503 ± 181 pg/mL. For the same molecule, the “TNF α” value (TNFα release [4]; CBD 2.5 μg/ml, mean ± SEM) was 3071 ± 296 pg/mL, the “TNF α” value (TNFα release [4]; CBD 5 μg/ml, mean ± SEM) was 4152 ± 499 pg/mL and the “TNF α” value (TNFα release [4]; CBD 10 μg/ml, mean ± SEM) was 10,964 ± 1714 pg/ml. For the same molecule, the “TNF α” value (TNFα release [4]; CBD 20 μg/ml, mean ± SEM) was 15,071 ± 2594 pg/ml, the “TNF α” value (TNFα release [4]; CBD 30 μg/ml, mean ± SEM) was 20,824 ± 1046 pg/ml and the “effect on LPS-induced TNFα release (in words)” value (TNFα release [4]; higher concentrations of CBD) was “increased their release”. The “effect on LPS-induced TNFα release (in words)” value (TNFα release [4]; [6]) was “significantly suppressed”, the “O.D. (cytotoxicity assay for TNF)” value (TNFα release [5]; CBD 1 μg/ml) was 0.190 ± 0.003 and the TNF (TNFα release [5]; CBD 1 μg/ml) was >1000 pg/mL. For the same molecule, the “O.D. (cytotoxicity assay for TNF)” value (TNFα release [5]; CBD 2.5 μg/ml) was 0.193 ± 0.004, the TNF (TNFα release [5]; CBD 2.5 μg/ml) was >1000 pg/mL and the “O.D. (cytotoxicity assay for TNF)” value (TNFα release [5]; CBD 5 μg/ml) was 0.422 ± 0.251. The TNF (TNFα release [5]; CBD 5 μg/ml) was 100 pg/mL, the “O.D. (cytotoxicity assay for TNF)” value (TNFα release [5]; CBD 10 μg/ml) was 0.922 ± 0.103 and the TNF (TNFα release [5]; CBD 10 μg/ml) was 2 pg/mL. The TNF (TNFα release [5]; CBD 20 μg/ml) was <0.01 pg/mL, the “O.D. (cytotoxicity assay for TNF)” value (TNFα release [5]; CBD 50 μg/ml) was 1.163 ± 0.119 and the TNF (TNFα release [5]; CBD 50 μg/ml) was <0.01 pg/mL. The “spontaneous TNF release (in words)” value (TNFα release [5]; CBD added to in vitro cultures) was “dose-dependent suppression of TNF release”, the “IL-10 release (in words)” value (IL-10) was “dose-dependent inhibition” and the “IL-10, mean” value (IL-10; CBD 0.1 μg/ml) was 273 pg/mL. For the same molecule, the “IL-10, mean” value (IL-10; CBD 1 μg/ml) was 249 pg/mL and the “IL-10, mean” value (IL-10; CBD 20 μg/ml) was 52 pg/mL.
